Reference: PubChem BioAssay AID1963959 (Molecular Pharmacology Branch, DTP, NCI, 2024)

Test system: T-47D spheroids with HUVEC/MSC, viability
Test: Anticancer human tumor T-47D cell line growth inhibition [PI3K];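 further: spheroids exposed to agents for seven days before reading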;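 on viability, T/C: percent of DMSO vehicle control luminescence so 100% = untreated growth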
Settings: for IC50: curve of first compound; for viability, T/C: stronger effect = lower value
How it was run: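 Spheroid viability read-out. Co-cultures contained the tumor line plus HUVEC and human MSCs. Each agent was paired with a PI3K inhibitor (inavolisib, alpelisib, duvelisib, copanlisib) across half-log dilutions starting at clinical Cmax, or at 10 microM when Cmax was unknown.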

[1] = second compound 0.00316 µM, first compound 0.0316 µM
[2] = second compound 0.00316 µM, first compound 0.1 µM
[3] = second compound 0.00316 µM, first compound 0.316 µM
[4] = second compound 0.00316 µM, first compound 1 µM
[5] = second compound 0.00316 µM, first compound 3.16 µM
[6] = second compound 0.00316 µM, first compound 10 µM
[7] = second compound 0.01 µM, first compound 0.0316 µM
[8] = second compound 0.01 µM, first compound 0.1 µM
[9] = second compound 0.01 µM, first compound 0.316 µM
[10] = second compound 0.01 µM, first compound 1 µM
[11] = second compound 0.01 µM, first compound 3.16 µM
[12] = second compound 0.01 µM, first compound 10 µM
[13] = second compound 0.0316 µM, first compound 0.0316 µM
[14] = second compound 0.0316 µM, first compound 0.1 µM
[15] = second compound 0.0316 µM, first compound 0.316 µM
[16] = second compound 0.0316 µM, first compound 1 µM
[17] = second compound 0.0316 µM, first compound 3.16 µM
[18] = second compound 0.0316 µM, first compound 10 µM
[19] = second compound 0.1 µM, first compound 0.0316 µM
[20] = second compound 0.1 µM, first compound 0.1 µM
[21] = second compound 0.1 µM, first compound 0.316 µM
[22] = second compound 0.1 µM, first compound 1 µM
[23] = second compound 0.1 µM, first compound 3.16 µM
[24] = second compound 0.1 µM, first compound 10 µM
[25] = second compound 0.316 µM, first compound 0.0316 µM
[26] = second compound 0.316 µM, first compound 0.1 µM
[27] = second compound 0.316 µM, first compound 0.316 µM
[28] = second compound 0.316 µM, first compound 1 µM
[29] = second compound 0.316 µM, first compound 3.16 µM
[30] = second compound 0.316 µM, first compound 10 µM
[31] = second compound 1 µM, first compound 0.0316 µM
[32] = second compound 1 µM, first compound 0.1 µM
[33] = second compound 1 µM, first compound 0.316 µM
[34] = second compound 1 µM, first compound 1 µM
[35] = second compound 1 µM, first compound 3.16 µM
[36] = second compound 1 µM, first compound 10 µM

Cn1ncc(Cl)c1-c1cc(C(=O)NC(CN)Cc2cccc(F)c2)sc1Cl (centres undefined) + CC(Nc1ccc2c(c1)OCCn1cc(N3C(=O)OCC3C(F)F)nc1-2)C(N)=O
IC50 (second compound 0.00316 µM): > 10 µM
IC50 (second compound 0.01 µM): > 10 µM
IC50 (second compound 0.0316 µM): > 10 µM
IC50 (second compound 0.1 µM): > 10 µM
IC50 (second compound 0.316 µM): > 10 µM
IC50 (second compound 1 µM): < 0.0316 µM
viability, T/C [1]: 91.4%
viability, T/C [2]: 86.4%
viability, T/C [3]: 80.5%
viability, T/C [4]: 81.8%
viability, T/C [5]: 73.7%
viability, T/C [6]: 81.5%
viability, T/C [7]: 91.2%
viability, T/C [8]: 89.6%
viability, T/C [9]: 82.9%
viability, T/C [10]: 70.2%
viability, T/C [11]: 65.5%
viability, T/C [12]: 87.9%
viability, T/C [13]: 82.1%
viability, T/C [14]: 82.7%
viability, T/C [15]: 68.1%
viability, T/C [16]: 67.8%
viability, T/C [17]: 59.5%
viability, T/C [18]: 90.9%
viability, T/C [19]: 95.7%
viability, T/C [20]: 92.7%
viability, T/C [21]: 71.8%
viability, T/C [22]: 55.6%
viability, T/C [23]: 58.9%
viability, T/C [24]: 75%
viability, T/C [25]: 71.4%
viability, T/C [26]: 59.7%
viability, T/C [27]: 60.8%
viability, T/C [28]: 49.7%
viability, T/C [29]: 47.2%
viability, T/C [30]: 64.6%
viability, T/C [31]: 50.8%
viability, T/C [32]: 49.5%
viability, T/C [33]: 49.8%
viability, T/C [34]: 45.5%
viability, T/C [35]: 50.3%
viability, T/C [36]: 59.3%

CC1(C)CCC(CN2CCN(c3ccc(C(=O)NS(=O)(=O)c4ccc(NCC5CCOCC5)c([N+](=O)[O-])c4)c(Oc4cnc5[nH]ccc5c4)c3)CC2)=C(c2ccc(Cl)cc2)C1 + COc1c(OCCCN2CCOCC2)ccc2c3n(c(=NC(=O)c4cnc(N)nc4)nc12)CCN3
IC50 (second compound 0.00316 µM): > 10 µM
IC50 (second compound 0.01 µM): > 10 µM
IC50 (second compound 0.0316 µM): > 10 µM
IC50 (second compound 0.1 µM): < 0.0316 µM
IC50 (second compound 0.316 µM): < 0.0316 µM
IC50 (second compound 1 µM): < 0.0316 µM
viability, T/C [1]: 117%
viability, T/C [2]: 80.5%
viability, T/C [3]: 122%
viability, T/C [4]: 74%
viability, T/C [5]: 82.4%
viability, T/C [6]: 108%
viability, T/C [7]: 100%
viability, T/C [8]: 69.8%
viability, T/C [9]: 91.5%
viability, T/C [10]: 78.6%
viability, T/C [11]: 80.1%
viability, T/C [12]: 88.1%
viability, T/C [13]: 73%
viability, T/C [14]: 81.8%
viability, T/C [15]: 67.3%
viability, T/C [16]: 69.4%
viability, T/C [17]: 58.5%
viability, T/C [18]: 75.1%
viability, T/C [19]: 43.7%
viability, T/C [20]: 42.3%
viability, T/C [21]: 37.1%
viability, T/C [22]: 38%
viability, T/C [23]: 35.2%
viability, T/C [24]: 41.4%
viability, T/C [25]: 15.6%
viability, T/C [26]: 22.3%
viability, T/C [27]: 17.9%
viability, T/C [28]: 18.1%
viability, T/C [29]: 14.8%
viability, T/C [30]: 16.6%
viability, T/C [31]: 6.44%
viability, T/C [32]: 6.49%
viability, T/C [33]: 6.92%
viability, T/C [34]: 7.19%
viability, T/C [35]: 4.62%
viability, T/C [36]: 9.27%
